# Data published in patent publication US12679878B2, “CRF2 receptor agonists and their use in therapy” (SANOFI, priority 2020, dated 2026).
# Read-outs that look alike come from different tables or passages of the source. Starred links: 1 amine or outer side, 2 acyl side, 3 side chain; linkers in the order of their positions; H or OH if unused. Non-standard residues stand in square brackets, D forms with d. Residues, ends and D or L forms follow the SMILES beside them. Groups on a side chain read outwards from the residue. *: point of attachment. C18 diacid = O=C(O)CCCCCCCCCCCCCCCCC(=O)*; γGlu = O=C(O)[C@H](CCC(=O)[*:2])N[*:1]; AEEA = NCCOCCOCC(=O)O; Aib = CC(C)(N)C(=O)O
# Assays:
# human CRF2α receptor = biological target: T1, human CRF2α receptor (Homo sapiens, UniProt Q13324); assay: cAMP agonism at human CRF2 α receptor in TeloHEAC cells (Example 7); assay type: cell-based; details: cAMP HTRF, TeloHEAC cells stably expressing human CRF2 α
# T1 construct: expressed in transfected cells; host or cells: TeloHEAC
# T1 sequence (Q13324 1-411): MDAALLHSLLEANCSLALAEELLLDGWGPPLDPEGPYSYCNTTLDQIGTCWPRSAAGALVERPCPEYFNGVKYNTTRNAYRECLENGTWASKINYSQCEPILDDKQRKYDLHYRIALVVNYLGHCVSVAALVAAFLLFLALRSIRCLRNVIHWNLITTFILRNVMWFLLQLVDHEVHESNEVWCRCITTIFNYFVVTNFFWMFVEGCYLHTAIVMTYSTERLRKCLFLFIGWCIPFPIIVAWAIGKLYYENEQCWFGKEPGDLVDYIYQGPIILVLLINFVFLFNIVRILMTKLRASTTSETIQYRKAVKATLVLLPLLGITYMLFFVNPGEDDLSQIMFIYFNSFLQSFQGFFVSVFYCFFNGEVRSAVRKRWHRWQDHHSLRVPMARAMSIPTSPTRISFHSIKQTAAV
# How it was run: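 Percent activation was referenced to 1000 nM UCN2 (100%), and EC50 values taken as concentrations giving half of maximal response. The read-out was a homogeneous time-resolved fluorescence cAMP kit, fluorescence ratio 665/620 nm. Thawed cells (2000/well) saw compound for 30 min at RT in buffer with 2 mM IBMX and 0%/0.1% HSA.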
# rat CRF2R α receptor = assay: cAMP agonism at rat CRF2R α receptor in A7R5 rat aortic smooth muscle cells (Example 8); assay type: cell-based; details: cAMP HTRF, A7R5 rat aortic smooth muscle cell line, 0% HSA
# How it was run: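 Potency (EC50) is the concentration reaching half-maximal activation, with responses scaled so that 1000 nM urocortin 2 equals 100%. Intracellular cAMP was quantified by homogeneous time-resolved fluorescence at 665/620 nm, 1 h after lysis-buffer reagents. Compound stimulation lasted 30 min at room temperature on 2000 IBMX-treated (2 mM) cells per well in HEPES-buffered HBSS.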
# CRF1R receptor = biological target: T2, CRF1R receptor (Homo sapiens, UniProt P34998); assay: cAMP activity at anti-target CRF1R, CRF1R-overexpression CHO cell line (Example 9); assay type: cell-based; details: CRF1R-overexpression CHO cell line; for EC50: 0% HSA; for Emax: read-out: Emax (%)
# T2 construct: host or cells: CHO-K1 clone 2
# T2 sequence (P34998 24-415): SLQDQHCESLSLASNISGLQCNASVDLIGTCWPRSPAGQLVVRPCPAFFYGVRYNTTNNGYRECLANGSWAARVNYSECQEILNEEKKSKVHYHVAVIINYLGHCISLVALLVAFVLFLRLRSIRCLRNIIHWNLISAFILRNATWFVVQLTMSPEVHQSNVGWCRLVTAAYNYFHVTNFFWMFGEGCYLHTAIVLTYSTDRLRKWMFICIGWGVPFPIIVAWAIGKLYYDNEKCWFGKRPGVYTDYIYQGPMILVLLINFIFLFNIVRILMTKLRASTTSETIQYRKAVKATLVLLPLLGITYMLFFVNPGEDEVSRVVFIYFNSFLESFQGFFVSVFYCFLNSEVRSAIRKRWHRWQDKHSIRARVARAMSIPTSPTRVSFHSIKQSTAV
# How it was run: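 Using thawed CRF1R-overexpressing CHO cells at 2000 per well, compound is applied for 30 min at RT in HBSS/HEPES buffer with IBMX. Cellular cAMP content is determined via HTRF, and percent activity is calculated against 1000 nM UCN2 defined as 100%.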
# [1] = Solubility in buffer systems by UPLC-UV (Example 13); assay type: physicochemical
# How it was run: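 Quantitation used UV peak area from UPLC of the 1:10-diluted supernatant, set against a reference-compound standard curve with extinction coefficients adjusted for amino acid sequence.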
# [2] = Chemical stability, purity loss by UPLC-UV after 28 days at 40° C. vs 5° C., pH 4.5 acetate buffer (Example 12); assay type: physicochemical; details: 28 days 40° C. vs 5° C.; pH 4.5, 20 mM acetate buffer; 300 μM
# How it was run: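 300 μM compound (purity-corrected) in 20 mM acetate buffer, pH 4.5, stored 28 days at 5 and 40° C. Purity by UPLC-UV as compound peak area over total peak area. Value is the purity difference between 5° C. and 40° C. samples, relative to the 5° C. purity, in percent.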
# [3] = 0% HSA, read-out: EC50 [nM], 0% HSA
# [4] = 0.1% HSA, read-out: EC50 [nM], 0.1% HSA
# [5] = pH 4.5, Solubility in Buffer A [mg/ml]
EC50 (human CRF2α receptor; [3]) [nM],EC50 (human CRF2α receptor; [4]) [nM],EC50 (rat CRF2R α receptor) [nM],EC50 (CRF1R receptor) [nM],Emax (CRF1R receptor) [%],"solubility at 1 h [1, 5] [µg/mL]",Relative purity loss [%] [2] [%],"solubility at 1 h ([1]; pH 4.5, Solubility in Buffer B [mg/ml]) [µg/mL]","solubility at 1 h ([1]; pH 7.4, Solubility in Buffer C [mg/ml]) [µg/mL]",Compound
0.06,1.6,0.62,> 1000,3.25,> 10000,–,–,–,CC[C@H](C)[C@H](N)C(=O)N[C@H](C(=O)N[C@@H](CC(C)C)C(=O)N[C@@H](CO)C(=O)N[C@@H](CC(C)C)C(=O)N[C@@H](CC(=O)O)C(=O)N[C@H](C(=O)N1CCC[C@H]1C(=O)N[C@H](C(=O)N[C@@H](CCCCN)C(=O)N[C@@H](CC(C)C)C(=O)N[C@@H](CCCCNC(=O)COCCOCCNC(=O)COCCOCCNC(=O)CC[C@H](NC(=O)CCCCCCCCCCCCCCCCC(=O)O)C(=O)O)C(=O)N[C@@H](CCCCN)C(=O)N[C@H](C(=O)N[C@@H](CC(C)C)C(=O)N[C@@H](CC(C)C)C(=O)N[C@@H](CCCCN)C(=O)N[C@@H](CCC(N)=O)C(=O)N[C@@H](CCC(=O)O)C(=O)N[C@@H](CCCNC(=N)N)C(=O)N[C@@H](CCC(N)=O)C(=O)N[C@@H](CCCCN)C(=O)N[C@@H](CCCCN)C(=O)NC(C)(C)C(=O)N[C@@H](CCCNC(=N)N)C(=O)N[C@@H](CCC(=O)O)C(=O)N[C@@H](CCC(N)=O)C(=O)N[C@@H](C)C(=O)N[C@@H](CCC(=O)O)C(=O)N[C@@H](CCCCN)C(=O)N[C@@H](CC(N)=O)C(=O)N[C@@H](CCCCN)C(=O)N[C@@H](CCC(N)=O)C(=O)N[C@H](C(=O)N[C@@H](CC(C)C)C(=O)N[C@@H](C)C(=O)N[C@@H](CCC(N)=O)C(=O)N[C@H](C(N)=O)C(C)C)[C@@H](C)CC)[C@@H](C)CC)[C@@H](C)CC)C(C)C)C(C)C [compound 99] (H-IVLSLDVPIKLK([AEEA-AEEA-γGlu-C18 diacid])KILLKQERQKK[Aib]REQAEKNKQILAQV-NH2)
0.04,1.48,0.13,> 1000,28.4,> 8400,3.55,> 9200,7500,CC[C@H](C)[C@H](N)C(=O)N[C@H](C(=O)N[C@@H](CC(C)C)C(=O)N[C@@H](CO)C(=O)N[C@@H](CC(C)C)C(=O)N[C@@H](CC(=O)O)C(=O)N[C@@H](C(=O)N1CCC[C@H]1C(=O)N[C@H](C(=O)N[C@@H](CCCCN)C(=O)N[C@@H](CC(C)C)C(=O)N[C@@H](CCCCNC(=O)COCCOCCNC(=O)COCCOCCNC(=O)CC[C@H](NC(=O)CCCCCCCCCCCCCCCCC(=O)O)C(=O)O)C(=O)N[C@@H](CCC(N)=O)C(=O)N[C@H](C(=O)N[C@@H](CC(C)C)C(=O)N[C@@H](CC(C)C)C(=O)N[C@@H](CCCCN)C(=O)N[C@@H](CCC(N)=O)C(=O)N[C@@H](CCC(=O)O)C(=O)N[C@@H](CCCNC(=N)N)C(=O)N[C@@H](CCC(N)=O)C(=O)N[C@@H](CCCCN)C(=O)NC(C)(C)C(=O)N[C@@H](CCC(N)=O)C(=O)N[C@@H](CCCNC(=N)N)C(=O)N[C@@H](CCC(N)=O)C(=O)N[C@@H](CCC(N)=O)C(=O)N[C@@H](C)C(=O)N[C@@H](CCC(=O)O)C(=O)N[C@@H](CCCCN)C(=O)N[C@@H](CC(N)=O)C(=O)N[C@@H](CCCCN)C(=O)N[C@@H](CCC(N)=O)C(=O)N[C@H](C(=O)N[C@@H](CC(C)C)C(=O)N[C@@H](C)C(=O)N[C@@H](CCC(N)=O)C(=O)N[C@H](C(N)=O)C(C)C)[C@@H](C)CC)[C@@H](C)CC)[C@@H](C)CC)C(C)C)C(C)C [compound 135] (H-IVLSLD[dV]PIKLK([AEEA-AEEA-γGlu-C18 diacid])QILLKQERQK[Aib]QRQQAEKNKQILAQV-NH2; N-terminus assumed)
